From ChEMBL document CHEMBL3244016, “Isomers of erythro-5-(1-hydroxy-2-isopropylaminobutyl)-8-hydroxycarbostyril, a new bronchodilator” (J Med Chem, 1977)

Key:
[1] = species: Canis familiaris; test: Separation ratio of ED25 for increase in heart rate in mongrel dog to ED50 for inhibition of bronchoconstriction in mongrel dog; parameters: species or system Canis lupus familiaris
[2] = test system: Canis familiaris; test: Bronchodilatory activity in iv dosed mongrel dog assessed as inhibition of histamine-induced bronchospasm administered 1 min prior to histamine challenge relative to l-isoproterenol; format: functional, Canis lupus familiaris
[3] = test system: Canis familiaris; test: Increase in heart rate in iv dosed anesthetized mongrel dog relative to l-isoproterenol; format: organism-based, Canis lupus familiaris; details: in vivo
[4] = test system: Canis familiaris; test: Increase in heart rate in iv dosed anesthetized mongrel dog; format: organism-based, Canis lupus familiaris; details: in vivo
[5] = test system: Canis familiaris; test: Bronchodilatory activity in iv dosed mongrel dog assessed as inhibition of histamine-induced bronchospasm administered 1 min prior to histamine challenge; format: functional; details: Canis lupus familiaris

| Structure (SMILES) | Ratio [1] | Ratio ED50 [2] | Ratio [3] | ED19.5 [4] | ED14.5 [4] | ED25 [4] | ED50 [5] |
| --- | --- | --- | --- | --- | --- | --- | --- |
| CCC(NC(C)C)C(O)c1ccc(O)c2[nH]c(=O)ccc12 (racemic; erythro) [PROCATEROL] | 24.9 | 2.03 | 50.5 | – | – | – | – |
| CC[C@H](NC(C)C)[C@@H](O)c1ccc(O)c2[nH]c(=O)ccc12 | 16.9 | 566 | 9550 | – | – | – | – |
| CCC(NC(C)C)C(O)c1ccc(O)c2[nH]c(=O)ccc12 (racemic; threo) [PROCATEROL] | – | 148 | – | 300 µg/kg | – | – | – |
| CC[C@@H](NC(C)C)[C@@H](O)c1ccc(O)c2[nH]c(=O)ccc12 | – | 18500 | – | – | 3000 µg/kg | – | – |
| CC[C@@H](NC(C)C)[C@H](O)c1ccc(O)c2[nH]c(=O)ccc12 | 1.84 | 4110 | 7560 | – | – | – | – |
| CC(C)NCC(O)c1ccc(O)c(O)c1 (stereo not drawn) [ISOPROTERENOL] | – | – | – | – | – | 0.019 µg/kg | 0.069 µg/kg |
| CCC(NC(C)C)C(O)c1ccc(O)c2[nH]c(=O)ccc12 (stereo in doubt) [PROCATEROL] | 23.5 | 1.41 | 33.2 | – | – | – | – |
